One test has as its target SMYD2 (Homo sapiens (Human), UniProt Q9NRG4). In words: SMYD2 biochemical assay (SMYD2 enzyme assay on peptide substrate, 3H-SAM Flashplate).
Conditions: not given
SMYD2, sequence (Q9NRG4 whole entry): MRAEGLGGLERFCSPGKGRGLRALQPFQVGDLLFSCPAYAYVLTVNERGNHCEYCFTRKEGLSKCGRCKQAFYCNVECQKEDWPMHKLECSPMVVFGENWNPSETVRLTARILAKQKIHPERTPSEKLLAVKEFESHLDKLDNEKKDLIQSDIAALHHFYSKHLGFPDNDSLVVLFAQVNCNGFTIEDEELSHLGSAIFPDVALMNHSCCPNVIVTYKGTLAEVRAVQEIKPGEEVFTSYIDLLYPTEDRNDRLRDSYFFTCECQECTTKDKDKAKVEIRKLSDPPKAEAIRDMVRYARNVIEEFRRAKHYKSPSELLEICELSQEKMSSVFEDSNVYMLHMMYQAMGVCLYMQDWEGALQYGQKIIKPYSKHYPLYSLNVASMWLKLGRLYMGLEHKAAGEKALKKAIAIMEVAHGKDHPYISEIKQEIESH
`C[C@H](c1cccc(OCCO)c1Cl)N1CC(NC(=O)c2cn(C3CC3)nn2)C1` (single isomer, unassigned) [compound 832]: the half-maximal inhibitory concentration (IC50) worked out at 14300 nM.

Staying with this test, now noted: read-out: SMYD2 Biochem IC50; IC50 values are an average of n = 1 to n = 50.
As for `CC(c1ncccn1)N1CC(NC(=O)c2cn(C3CC3)nn2)C1` (stereo not shown) [compound 715, 1-cyclopropyl-N-{1-[1-(pyrimidin-2-yl)ethyl]azetidin-3-yl}-1H-1,2,3-triazole-4-carboxamide], the half-inhibitory concentration (IC50) turned out to be 1940 nM.
Still for that read-out and setting: with `O=C(NC1CN(Cc2cnn(CC3CCOC3)c2)C1)c1cn(C2CC2)nn1` (stereo not shown) [compound 950, 1-cyclopropyl-N-(1-((1-((tetrahydrofuran-3-yl)methyl)-1H-pyrazol-4-yl)methyl)azetidin-3-yl)-1H-1,2,3-triazole-4-carboxamide] the figure was 2000 nM; with `COc1cc(OCc2ccccc2)ccc1C(C)N1CC(NC(=O)c2cn(C3CC3)nn2)C1` (stereo not shown) [compound 800, N-(1-{1-[4-(benzyloxy)-2-methoxyphenyl]ethyl}azetidin-3-yl)-1-cyclopropyl-1H-1,2,3-triazole-4-carboxamide], 965 nM; with `CC(C)N1CCCC(NC(=O)c2cc(C3CC3)cnn2)C1` (stereo not shown) [compound 815, 5-cyclopropyl-N-[1-(propan-2-yl)piperidin-3-yl]pyridazine-3-carboxamide], 18700 nM.
On the same count and under the same terms, with `C[C@H](c1ccccc1)N1CC(NC(=O)c2cc(C3CC3)cnn2)C1` [compound 647, 5-cyclopropyl-N-{1-[(1R)-1-phenylethyl]azetidin-3-yl}pyridazine-3-carboxamide] the figure was 7800 nM.
In the case of `O=C(NC1CN(Cc2cnn(CC3CCCCC3)c2)C1)c1cn(C2CC2)nn1` [compound 948, N-(1-((1-(cyclohexylmethyl)-1H-pyrazol-4-yl)methyl)azetidin-3-yl)-1-cyclopropyl-1H-1,2,3-triazole-4-carboxamide], the IC50 came to 360 nM.
The same measure, in the same setting: with `O=C(NC1CN(CCc2ccccc2)C1)c1cn(C2CC2)nn1` [compound 673, 1-cyclopropyl-N-[1-(2-phenylethyl)azetidin-3-yl]-1H-1,2,3-triazole-4-carboxamide] the figure was 1550 nM; with `O=C(NC1CN(Cc2ccc(OCCO)cc2)C1)c1cn(C2CC2)nn1` [compound 827, 1-cyclopropyl-N-(1-{[4-(2-hydroxyethoxy)phenyl]methyl}azetidin-3-yl)-1H-1,2,3-triazole-4-carboxamide], 1380 nM.
For the molecule `COc1cccc(C(C)N2CC(NC(=O)c3cc(C4CC4)ccn3)C2)c1OC` (stereo not shown) [compound 1005, 4-cyclopropyl-N-(1-(1-(2,3-dimethoxyphenyl)ethyl)azetidin-3-yl)picolinamide], the concentration for half-maximal inhibition (IC50) was determined as 130 nM.
On to `CC(C)(C)c1ccc(Cn2cc(CN3CC(NC(=O)c4cn(C5CC5)nn4)C3)cn2)cc1` [compound 947, N-(1-((1-(4-(tert-butyl)benzyl)-1H-pyrazol-4-yl)methyl)azetidin-3-yl)-1-cyclopropyl-1H-1,2,3-triazole-4-carboxamide], for which the IC50 was 56 nM.
As to `O=C(NC1CN(CCO)C1)c1cn(C2CC2)nn1` [compound 670, 1-cyclopropyl-N-[1-(2-hydroxyethyl)azetidin-3-yl]-1H-1,2,3-triazole-4-carboxamide], the IC50 was 4530 nM.
The same measure, in the same setting: with `O=C(NC1CN(Cc2cnn(CC3CC3)c2)C1)c1cn(C2CC2)nn1` [compound 1006, 1-cyclopropyl-N-(1-((1-(cyclopropylmethyl)-1H-pyrazol-4-yl)methyl)azetidin-3-yl)-1H-1,2,3-triazole-4-carboxamide] the figure was 1700 nM.
With `CC(NC(=O)c1cc(C2CC2)cnn1)C1CNC1` (stereo not shown) [compound 839, N-[1-(azetidin-3-yl)ethyl]-5-cyclopropylpyridazine-3-carboxamide], the 50% inhibitory concentration (IC50) is 18200 nM.
For `CNCCOc1cccc(C(C)N2CC(NC(=O)c3cn(C4CC4)nn3)C2)c1Cl` (stereo not shown) [compound 975, N-(1-(1-(2-chloro-3-(2-(methylamino)ethoxy)phenyl)ethyl)azetidin-3-yl)-1-cyclopropyl-1H-1,2,3-triazole-4-carboxamide], the IC50 came out at 5400 nM.
Consider `CC(c1ccc(OCC2CCNCC2)cc1)N1CC(NC(=O)c2cn(C3CC3)nn2)C1` (stereo not shown) [compound 925, 1-cyclopropyl-N-(1-(1-(4-(piperidin-4-ylmethoxy)phenyl)ethyl)azetidin-3-yl)-1H-1,2,3-triazole-4-carboxamide], for which the IC50 was 4300 nM.
Still for that read-out and setting: as for `CC(c1cnccn1)N1CC(NC(=O)c2cn(C3CC3)nn2)C1` (stereo not shown) [compound 745, 1-cyclopropyl-N-{1-[1-(pyrazin-2-yl)ethyl]azetidin-3-yl}-1H-1,2,3-triazole-4-carboxamide], the figure is 7440 nM; as for `CNC(=O)c1cccc(CN2CC(NC(=O)c3cn(C4CC4)nn3)C2)c1` [compound 726, 1-cyclopropyl-N-(1-{[3-(methylcarbamoyl)phenyl]methyl}azetidin-3-yl)-1H-1,2,3-triazole-4-carboxamide], 10700 nM.
Still for that read-out and setting: as for `CC(O)COc1cccc(C(C)N2CC(NC(=O)c3cn(C4CC4)nn3)C2)c1Cl` (stereo not shown) [compound 978, N-(1-(1-(2-chloro-3-(2-hydroxypropoxy)phenyl)ethyl)azetidin-3-yl)-1-cyclopropyl-1H-1,2,3-triazole-4-carboxamide], the figure is 1100 nM.
Still for that read-out and setting: with `O=C(NC1CN(Cc2cnn(Cc3ccccc3)c2)C1)c1nnc(C2CC2)s1` [compound 1007, N-(1-((1-benzyl-1H-pyrazol-4-yl)methyl)azetidin-3-yl)-5-cyclopropyl-1,3,4-thiadiazole-2-carboxamide] the figure was 72 nM.
For the molecule `CN(C)CCCNC(=O)c1cn(C2CC2)nn1` [compound 921, 1-cyclopropyl-N-(3-(dimethylamino)propyl)-1H-1,2,3-triazole-4-carboxamide], the IC50 was determined as 5400 nM.
The same measure, in the same setting: as for `COc1ccc(CC(C)N2CC(NC(=O)c3cn(C4CC4)nn3)C2)cc1OC` (stereo not shown) [compound 688, 1-cyclopropyl-N-{1-[1-(3,4-dimethoxyphenyl)propan-2-yl]azetidin-3-yl}-1H-1,2,3-triazole-4-carboxamide], the figure is 5100 nM; as for `CNC(=O)c1ccc(COc2ccc(C(C)N3CC(NC(=O)c4cn(C5CC5)nn4)C3)cc2)cc1` (stereo not shown) [compound 854, 1-cyclopropyl-N-{1-[1-(4-{[4-(methylcarbamoyl)phenyl]methoxy}phenyl)ethyl]azetidin-3-yl}-1H-1,2,3-triazole-4-carboxamide], 965 nM.
Same read-out and setting: as for `O=C(NC1CN(Cc2ccc(OCc3ccccn3)cc2)C1)c1cn(C2CC2)nn1` [compound 992, 1-cyclopropyl-N-(1-(4-(pyridin-2-ylmethoxy)benzyl)azetidin-3-yl)-1H-1,2,3-triazole-4-carboxamide], the figure is 2700 nM; as for `CCC(c1ccc(C(F)(F)F)cc1)N1CC(NC(=O)c2cn(C3CC3)nn2)C1` (stereo not shown) [compound 700, 1-cyclopropyl-N-(1-{1-[4-(trifluoromethyl)phenyl]propyl}azetidin-3-yl)-1H-1,2,3-triazole-4-carboxamide], 2670 nM; as for `O=C(NC1CN(Cc2cn(Cc3ccccc3)nn2)C1)c1cn(C2CC2)nn1` [compound 931, N-(1-((1-benzyl-1H-1,2,3-triazol-4-yl)methyl)azetidin-3-yl)-1-cyclopropyl-1H-1,2,3-triazole-4-carboxamide], 11100 nM.
Still for that read-out and setting: with `O=C(NC1CN(Cc2ccc(OCc3cscn3)cc2)C1)c1cn(C2CC2)nn1` [compound 846, 1-cyclopropyl-N-(1-{[4-(1,3-thiazol-4-ylmethoxy)phenyl]methyl}azetidin-3-yl)-1H-1,2,3-triazole-4-carboxamide] the figure was 1090 nM; with `COc1ccc(C(C)N2CC(NC(=O)c3cn(C4CC4)nn3)C2)cc1OC` (stereo not shown) [compound 698, 1-cyclopropyl-N-{1-[1-(3,4-dimethoxyphenyl)ethyl]azetidin-3-yl}-1H-1,2,3-triazole-4-carboxamide], 3690 nM.
`CC(c1cc(Cl)ccc1Oc1ccc(F)cc1)N1CC(NC(=O)c2cn(C3CC3)nn2)C1` (stereo not shown) [compound 989, N-(1-(1-(5-chloro-2-(4-fluorophenoxy)phenyl)ethyl)azetidin-3-yl)-1-cyclopropyl-1H-1,2,3-triazole-4-carboxamide]: the IC50 was over 50000 nM.
The same measure, in the same setting: as for `COc1ccc(C(C)N2CC(NC(=O)c3cn(C4CC4)nn3)C2)cc1` (stereo not shown) [compound 821, 1-cyclopropyl-N-{1-[1-(4-methoxyphenyl)ethyl]azetidin-3-yl}-1H-1,2,3-triazole-4-carboxamide], the figure is 785 nM; as for `CCCN1CC(NC(=O)c2cn(C3CC3)nn2)C1` [compound 660, 1-cyclopropyl-N-(1-propylazetidin-3-yl)-1H-1,2,3-triazole-4-carboxamide], 1170 nM; as for `CC(NC(=O)c1cc(C2CC2)cnn1)C1CN(C(C)C)C1` (stereo not shown) [compound 840, 5-cyclopropyl-N-{1-[1-(propan-2-yl)azetidin-3-yl]ethyl}pyridazine-3-carboxamide], 36800 nM.
For the molecule `CC(c1nccs1)N1CC(NC(=O)c2cn(C3CC3)nn2)C1` (stereo not shown) [compound 716, 1-cyclopropyl-N-{1-[1-(1,3-thiazol-2-yl)ethyl]azetidin-3-yl}-1H-1,2,3-triazole-4-carboxamide], the concentration for half-maximal inhibition (IC50) came to 30700 nM.
In the case of `O=C(NC1CN(Cc2cnn(Cc3ccc(F)cc3)c2)C1)c1cn(C2CC2)nn1` [compound 951, 1-cyclopropyl-N-(1-((1-(4-fluorobenzyl)-1H-pyrazol-4-yl)methyl)azetidin-3-yl)-1H-1,2,3-triazole-4-carboxamide], the IC50 worked out at 22 nM.
In the case of `CC(c1cc(F)ccc1F)N1CC(NC(=O)c2cn(C3CC3)nn2)C1` (stereo not shown) [compound 746, 1-cyclopropyl-N-{1-[1-(2,5-difluorophenyl)ethyl]azetidin-3-yl}-1H-1,2,3-triazole-4-carboxamide], the IC50 was determined as 7780 nM.
Same read-out and setting: with `O=C(NC1CN(Cc2ccc(OCc3cscn3)cc2)C1)c1cn(C2CC2)nn1` [compound 999, 1-cyclopropyl-N-(1-(4-(thiazol-4-ylmethoxy)benzyl)azetidin-3-yl)-1H-1,2,3-triazole-4-carboxamide] the figure was 1100 nM; with `CC(c1ccccc1F)N1CC(NC(=O)c2cn(C3CC3)nn2)C1` (stereo not shown) [compound 678, 1-cyclopropyl-N-{1-[1-(2-fluorophenyl)ethyl]azetidin-3-yl}-1H-1,2,3-triazole-4-carboxamide], 907 nM.

(Values after patent publication US10266526B2, “Substituted 1,2,3-triazoles as SMYD inhibitors for treating cancer” (EPIZYME, INC., priority 2014, dated 2019).)
